According to PMC9320910, “Inhibition of Microtubule Affinity Regulating Kinase 4 by Metformin: Exploring the Neuroprotective Potential of Antidiabetic Drug through Spectroscopic and Computational Approaches” (Molecules, 2022):

Molecular target: T1, Microtubule affinity regulating kinase 4 (MARK4) (Homo sapiens, UniProt Q96L34)
T1 sequence (Q96L34 1-752): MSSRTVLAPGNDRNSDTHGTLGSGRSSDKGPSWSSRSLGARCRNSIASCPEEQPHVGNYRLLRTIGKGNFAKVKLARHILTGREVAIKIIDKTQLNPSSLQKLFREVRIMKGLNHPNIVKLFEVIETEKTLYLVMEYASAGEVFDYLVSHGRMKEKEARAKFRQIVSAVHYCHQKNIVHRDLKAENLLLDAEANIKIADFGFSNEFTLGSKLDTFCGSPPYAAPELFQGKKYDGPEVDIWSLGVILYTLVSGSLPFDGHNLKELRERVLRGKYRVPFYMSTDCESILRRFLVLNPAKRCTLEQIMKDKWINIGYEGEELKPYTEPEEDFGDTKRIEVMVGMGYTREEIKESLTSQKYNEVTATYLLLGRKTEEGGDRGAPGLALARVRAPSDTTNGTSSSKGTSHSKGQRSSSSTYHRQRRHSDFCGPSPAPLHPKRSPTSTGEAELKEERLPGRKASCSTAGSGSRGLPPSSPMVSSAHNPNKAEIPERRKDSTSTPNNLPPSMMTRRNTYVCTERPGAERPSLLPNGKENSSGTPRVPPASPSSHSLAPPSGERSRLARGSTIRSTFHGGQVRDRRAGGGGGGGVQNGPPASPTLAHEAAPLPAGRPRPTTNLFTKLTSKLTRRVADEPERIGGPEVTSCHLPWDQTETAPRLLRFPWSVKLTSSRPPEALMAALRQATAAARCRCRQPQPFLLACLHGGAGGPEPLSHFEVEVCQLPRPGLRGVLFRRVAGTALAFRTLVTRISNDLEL
Experiment: intrinsic fluorescence quenching (modified Stern-Volmer); supported by malachite green ATPase assay of MARK4 (IC50 =[…])
Assay type: binding

- Kd: 1670 nM
Structure (SMILES): CN(C)C(=N)N=C(N)N [Mtf, N,N-dimethylbiguanide]
